Results taken from US20250092010A1, “DIHYDRO-2H-ISOINDOLE ESTER COMPOUND” (Shanghai Maius Pharmaceutical Co. Ltd., priority 2021, published 2025).

Key:
[1] = Pharmacokinetic assays after oral gavage administration to rats; type: in vivo, male SD rats; design: Tmax / AUC(0-∞): concentration or dose not given beside the values; AUMC(0-t) / AUMC(0-∞): unit not given here; details: for average retention time / time to peak concentration / AUC(0-∞) / AUMC(0-t) / AUMC(0-∞) / CLz/F / Cmax / MRT(0-t) / MRT(0-∞) / Tmax / VRT(0-t) / VRT(0-∞) / t½z / AUC(0-t): active metabolite; for AUC value of the active metabolite equivalent to % of that of the existing drugs: existing drugs administered at the same molar amount; for AUC(0-∞) / AUMC(0-t) / AUMC(0-∞) / CLz/F / Cmax / MRT(0-t) / MRT(0-∞) / Tmax / VRT(0-t) / VRT(0-∞) / t½z / AUC(0-t): plasma, oral gavage, male SD rats; for AUC(0-t): suspension in 0.5% CMC-Na
Experimental: Instruments: ultra high performance liquid chromatography (Acquity UPLC, Waters) system; triple quadrupole mass spectrometer (Qtrap 5500, Sciex); high-speed refrigerated centrifuge (5430R, Eppendorf).
Chromatography Condition: Column: 2.1×50 mm (1.7 μm, BEH C18, Waters); Column Temperature: 45° C.; Mobile Phase: 0.1% aqueous solution of formic acid (A)/acetonitrile; Gradient: see the table below: […]
Mass Spectrometry Condition: Mode: positive ion multiple reaction monitoring (MRM); Curtain Gas: 45 psi; Gas 1:45 psi; Gas 2:45 psi; Ion Source Temperature: 500° C.; Ion Source Voltage: 5000 V. Precursor ions (Q1), product ions (Q3) and collision energy (CE) of some compounds are listed in the table below:
Experimental Animals: male SD rats, 6 in each group, weighing 200-220 grams, fasting overnight before experimentation.
Preparation of Drugs: lenalidomide, as a reference drug, and the test compounds (Compounds 1-10) were accurately weighed and dispensed in 0.5% CMC-Na solutions, resulting in suspensions.
Drug Administration to and Blood Collection from Animals: the drugs were oral gavage administered to the rats, and 100-μl blood samples were taken before administration and 10 min, 20 min, 40 min, 1 h, 1.5 h, 2 h, 3 h, 5 h, 8 h, 12 h, 21 h, 24 h and 30 h after administration. Each sample was placed in an ice bath, centrifuged for plasma collection, frozen and stored.
Plasma drug concentration Data and Calculation of Pharmacokinetic Parameters: Plasma drug concentration data was processed using MultiQuan 3.0 (Sciex), and pharmacokinetic parameters were calculated using DAS 2.0 software. Plasma drug concentrations were measured in ug/L.

[2] = patients, cited from earlier work

| SMILES | average retention time [1] [h] | time to peak concentration [1] [h] | AUC value of the active metabolite equivalent to % of that of the existing drugs [1] [%] | AUC(0-∞) [1] [ng·h/mL] | AUMC(0-t) [1] | AUMC(0-∞) [1] | CLz/F [1] [mL/min/kg] | Cmax [1] [ng/mL] | MRT(0-t) [1] [h] | MRT(0-∞) [1] [h] | Tmax [1] [h] | VRT(0-t) [1] [h^2] | VRT(0-∞) [1] | t½z [1] [h] | AUC(0-t) [1] [ng·h/mL] | myelosuppression grade ([2]; 50 mg per day, 28th day of treatment) | maximum tolerated dose (MTD) ([2]; clinical study) [mg per day] |
| --- | --- | --- | --- | --- | --- | --- | --- | --- | --- | --- | --- | --- | --- | --- | --- | --- | --- |
| CC(C)OC(=O)Nc1cccc2c1CN(C1CCC(=O)NC1=O)C2=O (centres unmarked) [Compound 1] | 4.5 | 0.8 | 45 | 3889.6 ± 435.6 | 32705.8 ± 3125.3 | 33484.2 ± 3040.7 | 71.7 ± 17 | 543.6 ± 68.5 | 4.5 ± 0.7 | 4.6 ± 0.6 | 0.8 ± 0.4 | 13 ± 2.2 | 14.3 ± 2.1 h^2 | 2.8 ± 0.3 | 3822 ± 424.5 |  |  |
| CCCCCCCCOC(=O)Nc1cccc2c1CN(C1CCC(=O)NC1=O)C2=O (centres unmarked) [Compound 7] |  |  |  | 584.3 ± 50.3 | 3965 ± 415.1 | 4123 ± 446.1 | 68.3 ± 18.3 | 135 ± 23.0 | 3.8 ± 0.7 | 3.8 ± 0.8 | 3.5 ± 0.8 | 10 ± 1.3 | 10.5 ± 1.3 h^2 | 3.1 ± 0.2 | 503.2 ± 42.6 |  |  |
| CCCCCCOC(=O)Nc1cccc2c1CN(C1CCC(=O)NC1=O)C2=O (centres unmarked) [Compound 5] |  |  |  | 1257 ± 209.6 | 8749 ± 352.6 | 8954 ± 336.4 | 70 ± 15 | 158 ± 31.1 | 4 ± 0.5 | 1.1 ± 0.6 | 4 ± 0.5 | 11 ± 1.8 | 11.8 ± 2.1^ h^2 | 3.0 ± 0.3 | 1022 ± 214.5 |  |  |
| Cc1oc(=O)oc1COC(=O)Nc1cccc2c1CN(C1CCC(=O)NC1=O)C2=O (centres unmarked) [Compound 6] | 8.6 | 7 | 61 | 5229.3 ± 755.1 | 44683.6 ± 4956.6 | 45199.7 ± 4922.6 | 98.3 ± 17 | 405.4 ± 89.8 | 8.6 ± 0.6 | 8.7 ± 0.6 | 7 ± 1.5 | 20 ± 2.5 | 21.8 ± 2.8 h^2 | 2.9 ± 0.4 | 5217 ± 754.8 |  |  |
| Nc1cccc2c1CN(C1CCC(=O)NC1=O)C2=O (centres unmarked) [reference drug, lenalidomide] |  |  |  |  |  |  |  |  |  |  |  |  |  |  |  | Grade 3 myelosuppression | 25 |
| CCC(CC)COC(=O)Nc1cccc2c1CN(C1CCC(=O)NC1=O)C2=O (centres unmarked) [Compound 10] |  |  |  | 1765 ± 226.3 | 13691 ± 587.2 | 14002 ± 589.6 | 65 ± 13 | 163.2 ± 26.4 | 5.2 ± 0.7 | 5.2 ± 0.7 | 5 ± 0.9 | 14 ± 2.1 | 14.2 ± 2.2 h^2 | 3.1 ± 0.5 | 1568 ± 205.4 |  |  |
| CCCCCCCCCCCCCCCCCCOC(=O)Nc1cccc2c1CN(C1CCC(=O)NC1=O)C2=O (centres unmarked) [Compound 9] |  |  |  | 456 ± 48.0 | 3126 ± 298.1 | 3360 ± 318.6 | 70 ± 16.7 | 95.6 ± 22.2 | 3.5 ± 0.6 | 3.6 ± 0.7 | 4.1 ± 0.8 | 10 ± 1.5 | 10.2 ± 1.5 h^2 | 3.0 ± 0.4 | 402.5 ± 51.6 |  |  |
| CCCCCCCCCCCOC(=O)Nc1cccc2c1CN(C1CCC(=O)NC1=O)C2=O (centres unmarked) [Compound 8] |  |  |  | 421.5 ± 55.6 | 3596 ± 401.3 | 3689 ± 411.6 | 63.3 ± 15 | 105.3 ± 24.1 | 3.8 ± 0.5 | 3.9 ± 0.5 | 3.8 ± 1.1 | 9.8 ± 1.5 | 9.9 ± 1.6 h^2 | 2.9 ± 0.3 | 489.4 ± 50.3 |  |  |
